≈ marks a conversion by molar mass, not a printed value.
Tests used:
[1] = system: PAF-induced rabbit platelet aggregation; test: Inhibition of PAF-induced rabbit platelet aggregation (in vitro, platelet-rich plasma); format: cell-based; settings: Oryctolagus cuniculus, rabbit PRP, 37° C., final PAF concentration 0.005 μ1/ml [sic]
Procedure: (§1) The inhibition of PAF-induced platelet aggregation was examined by using a platelet-rich plasma (PRP) of rabbit according to the method of Mustard et al. [J.F. Mustard et al., J. Lab. Clin. Med., 64, 548 (1964)], which is an improvement of the method of Born [G.V.R. Born, J. Physiol., London, 162, 67 (1962)]. That is, 80-100 ml of blood per animal was collected from carotid arteries of male rabbits of the Japanese white breed without anesthesia into a polyethylene vessel containing 1/10 the volume of a 3.8% sodium citrate solution. A portion (about 3 ml) of the collected blood was centrifuged at a high speed (11,000 rpm) for 60 seconds, giving a platelet-poor plasma (PPP) as supernatant. The remainder of the blood was centrifuged at a low speed (1000 rpm) for 10 minutes, giving a platelet-rich plasma (PRP) as supernatant.
(§2) The degree of platelet aggregation was determined by nephelometry with an aggregometer (Hematracer, Niko Bioscience Co.) while stirring the PRP at 1000 rpm at 37° C. The platelet aggregation activity was expressed in terms of the light transmittance (%), the value of PRP being taken as 0% and the value of PPP as 100%. A portion (0.2 ml) of the PRP was placed in a glass cuvette containing a silicone-treated stirring iron rod, and 2 µl of dimethylsulfoxide was added. AFter 2 minutes, PAF dissolved in 0.25% BSA physiological saline was added to give a final PAF concentration of 0.005 μ1/ml, and the maximum aggregation was determined. To examine the inhibitory activity of test compounds on the platelet aggregation caused by PAF, 2 µl of a dimethylsulfoxide solution of each test compound was added in place of the dimethylsulfoxide. The percentage inhibition by the test compound of PAF-induced platelet aggregation was calculated according to the following equation and the value of IC50 was determined. [formula]

[2] = system: PAF-induced blood concentration; test: Test in vivo for inhibition of PAF-induced blood concentration; settings: guinea pigs, PAF iv 2 min later
Procedure: Guinea pigs under anesthesia with urethane (6.25 mg/kg injected into the abdominal cavities) were cannulated through carotid arteries and jugular veins. The carotid artery cannulae were used for blood sampling and the jugular vein cannulae for the intravenous injection of test compound and PAF.
Compound No. 27 was suspended in 10% Nikkol® liquid to a concentration of 3 mg/ml, and 1 ml/kg of the resulting suspension was administered through the jugular vein cannulae. Two minutes later, 1 ml/kg of a 0.1 μg/m1 PAF solution was administered through the jugular vein cannulae. Then, blood was sampled at times. The blood samples were each centrifuged at 11,000 rpm for 5 minutes and the hematocrit values were measured to determine the maximum increase (blood concentration) in hematocrit value.
For a control, 0.5% methyl cellulose solution was administered in place of compound No. 27.
The percentage inhibition of the PAF-induced blood concentration by compound No. 27 was calculated according to the following equation: [formula] The found percentage inhibition was 87%.

[3] = system: PAF-induced human platelet aggregation; test: Inhibition of PAF-induced human platelet aggregation (in vitro, human PRP); format: cell-based
Procedure: as §1, §2
The inhibition of PAF-induced platelet aggregation was tested by using human PRP. The test was conducted according to the procedure of the above case of rabbit, thereby evaluating the percentages inhibition and IC50 values of test compounds at final PAF concentrations of 0.3 μM and 1 μM.

Row | Structure (SMILES) | IC50 [1] [µg/mL] | also measured
1 | CN(C)CCN1C(=O)C(CC(F)(F)F)SC1c1cccnc1 (centres unmarked) [compound 171] | 4.2 (≈ 12.6 µM) | –
2 | CCOC(=O)CN1C(=O)[C@@H](C)S[C@H]1c1cccnc1 (relative stereo) [Compound No. 9, 3-ethoxycarbonylmethyl-5-methyl-2(3-pyridyl)thiazolidin-4-one] | 1.6 (≈ 5.71 µM) | –
3 | CCCCCCCCC[C@H]1S[C@H](c2cccnc2)N(CCN(C)C)C1=O (relative stereo) [Compound No. 27, 3-(2-dimethylaminoethyl)-5-(n-nonyl)-2-(3-pyridyl)thiazolidin-4-one] | 0.02 (≈ 0.053 µM) | Percentage inhibition of PAF-induced blood concentration (maximum increase in hematocrit value) ([2]; dose 3 mg/kg iv): 87%; IC50 ([3]; PAF concentration 0.3 μM): 0.2 µg/mL (≈ 0.53 µM); IC50 ([3]; PAF concentration 1 μM): 0.4 µg/mL (≈ 1.06 µM)
4 | CCCCCCC[C@H]1S[C@@H](c2cccnc2)N(CCN(C)C)C1=O (relative stereo) [compound 76] | 0.2 (≈ 0.572 µM) | –
5 | COc1ccc(CCN2C(=O)[C@@H](C)S[C@@H]2c2cccnc2)cc1OC (relative stereo) [compound 37] | 0.7 (≈ 1.95 µM) | –
6 | CCCCCCCCCCC1SC(c2cccnc2)N(C)C1=O (centres unmarked) [compound 51] | 1.4 (≈ 4.18 µM) | –
7 | CCCCC[C@H]1S[C@H](c2cccnc2)N(CCN(C)C)C1=O (relative stereo) [compound 71] | 0.32 (≈ 0.995 µM) | –
8 | CCCCCCC[C@H]1S[C@H](c2cccnc2)N(CCN(C)C)C1=O (relative stereo) [compound 75] | 0.06 (≈ 0.172 µM) | –
9 | CCCCCCC1SC(c2cccnc2)N(C)C1=O (centres unmarked) [compound 47] | 1.4 (≈ 5.03 µM) | –
10 | C[C@H]1S[C@H](c2cccnc2)N(CC(=O)OC(C)(C)C)C1=O (relative stereo) [Compound No. 15, 3-t-butyloxycarbonylmethyl-5-methyl-2-(3-pyridyl)thiazolidin-4-one] | 2.6 (≈ 8.43 µM) | –
11 | CCCC1SC(c2cccnc2)N(C)C1=O (centres unmarked) [compound 43] | 1.2 (≈ 5.08 µM) | –
12 | CCCCCCCC[C@H]1S[C@H](c2cccnc2)N(CCN(C)C)C1=O (relative stereo) [compound 77] | 0.034 (≈ 0.0935 µM) | –
13 | CC(C)OCCC1SC(c2cccnc2)N(CCN(C)C)C1=O (centres unmarked) [compound 154] | 2.4 (≈ 7.11 µM) | –
14 | CCOCCCC1SC(c2cccnc2)N(CCN(C)C)C1=O (centres unmarked) [compound 137] | 0.19 (≈ 0.563 µM) | –
15 | CCC1SC(c2cccnc2)N(C)C1=O (centres unmarked) [compound 42] | 2.5 (≈ 11.2 µM) | –
16 | CCCCCCCCC[C@H]1S[C@H](c2cccnc2)N(C)C1=O (relative stereo) [compound 49] | 2.4 (≈ 7.49 µM) | –
17 | CCCCCC[C@H]1S[C@H](c2cccnc2)N(CCN(C)C)C1=O (relative stereo) [compound 73] | 0.07 (≈ 0.209 µM) | –
18 | CCCCCCCCCCC[C@H]1S[C@@H](c2cccnc2)N(CCN(C)C)C1=O (relative stereo) [compound 82] | 0.6 (≈ 1.48 µM) | –
19 | C[C@H]1S[C@H](c2cccnc2)N(CCN(C)C)C1=O (relative stereo) [compound 127] | 1.7 (≈ 6.41 µM) | –
20 | CCCC[C@H]1S[C@H](c2cccnc2)N(CCN(C)C)C1=O (relative stereo) [compound 69] | 0.24 (≈ 0.781 µM) | –
21 | C[C@H]1S[C@@H](c2cccnc2)N(C)C1=O (single isomer, unassigned) [compound 178, (+)-cis-3,5-dimethyl-2-(3-pyridyl)-thiazolidin-4-one] | 1.5 (≈ 7.2 µM) | –
22 | CN(C)CCN1C(=O)C(C)(C)SC1c1cccnc1 (centres unmarked) [compound 25, 5,5-dimethyl-3-(2-dimethylaminoethyl)2-(3-pyridyl)thiazolidin-4-one] | 10 (≈ 35.8 µM) | –
23 | CCCCCCCCCCCC[C@H]1S[C@H](c2cccnc2)N(CCN(C)C)C1=O (relative stereo) [compound 83] | 0.27 (≈ 0.643 µM) | –
24 | CN(C)CCN1C(=O)C(CCOCc2ccccc2)(CCOCc2ccccc2)SC1c1cccnc1 (centres unmarked) [compound 130] | 4.2 (≈ 8.08 µM) | –
25 | CCC1SC(c2cccnc2)N(CCN(C)C)C1=O (centres unmarked) [compound 24, 5-ethyl-3-(2-dimethylaminoethyl)-2-(3-pyridyl)thiazolidin-4-one] | 2 (≈ 7.16 µM) | –

Row | Structure (SMILES) | IC50 [1] [µg/mL] | also measured
26 | CCCCCC1SC(c2cccnc2)N(C)C1=O (centres unmarked) [compound 46] | 1.9 (≈ 7.19 µM) | –
27 | CCCCOCCOCC[C@H]1S[C@H](c2cccnc2)N(CCN(C)C)C1=O (relative stereo) [compound 135] | 0.15 (≈ 0.379 µM) | –
28 | CCCCCCCC[C@H]1S[C@@H](c2cccnc2)N(CCN(C)C)C1=O (relative stereo) [compound 78] | 0.14 (≈ 0.385 µM) | –
29 | C[C@H]1S[C@@H](c2cccnc2)N(CCN(C)C)C1=O (relative stereo) [compound 128] | 4.2 (≈ 15.8 µM) | –
30 | C[C@H]1S[C@@H](c2cccnc2)N(C)C1=O (relative stereo) [Compound No. 2, 3,5-Dimethyl-2-(3-pyridyl)thiazolidin-4-one] | 4 (≈ 19.2 µM) | Percentage inhibition of PAF-induced blood concentration (maximum increase in hematocrit value) ([2]; dose 3 mg/kg iv): 53%; IC50 ([3]; PAF concentration 0.3 μM): 5.5 µg/mL (≈ 26.4 µM)
31 | C[C@H]1S[C@H](c2cccnc2)N(C)C1=O (relative stereo) [compound 3, 3,5-Dimethyl-2-(3-pyridyl)thiazolidin-4-one] | 3.5 (≈ 16.8 µM) | Percentage inhibition of PAF-induced blood concentration (maximum increase in hematocrit value) ([2]; dose 30 mg/kg iv): 58%; IC50 ([3]; PAF concentration 0.3 μM): 6 µg/mL (≈ 28.8 µM)
32 | CN(C)CCN1C(=O)C(CCOCCO[Si](C)(C)C(C)(C)C)SC1c1cccnc1 (centres unmarked) [compound 165] | 0.3 (≈ 0.661 µM) | –
33 | CN(C)CCN1C(=O)[C@@H](CCCO[Si](C)(C)C(C)(C)C)S[C@@H]1c1cccnc1 (relative stereo) [compound 169] | 0.026 (≈ 0.0614 µM) | –
34 | CCN1C(=O)C(C)SC1c1cccnc1 (centres unmarked) [compound 30] | 4.2 (≈ 18.9 µM) | –
35 | CCC[C@H]1S[C@H](c2cccnc2)N(CCN(C)C)C1=O (relative stereo) [compound 67] | 0.45 (≈ 1.53 µM) | –
36 | CCCCC1SC(c2cccnc2)N(C)C1=O (centres unmarked) [compound 7, 5-butyl-3-methyl-2-(3-pyridyl)-thiazolidin-4-one] | 2 (≈ 7.99 µM) | –
37 | CC(=O)SCCN1C(=O)[C@@H](C)S[C@H]1c1cccnc1 (relative stereo) [Compound No. 18, 3-(2-Acetylthioethyl)-5-methyl-2(3-pyridyl)thiazolidin-4-one] | 3 (≈ 10.1 µM) | –
38 | CCCCCCCCCC[C@H]1S[C@@H](c2cccnc2)N(CCN(C)C)C1=O (relative stereo) [compound 80] | 0.35 (≈ 0.894 µM) | –
39 | CCCCCCCCC[C@H]1S[C@@H](c2cccnc2)N(CCCN(C)C)C1=O (relative stereo) [compound 108] | 0.7 (≈ 1.79 µM) | IC50 ([3]; PAF concentration 0.3 μM): 1.8 µg/mL (≈ 4.6 µM); IC50 ([3]; PAF concentration 1 μM): 6 µg/mL (≈ 15.3 µM)
40 | CN(C)CCN1C(=O)[C@@H](CCCO[Si](C)(C)C(C)(C)C)S[C@H]1c1cccnc1 (relative stereo) [compound 170] | 0.052 (≈ 0.123 µM) | –
41 | C[C@@H]1S[C@@H](c2cccnc2)N(C)C1=O (single isomer, unassigned) [compound 181, (+)-trans-3,5-dimethyl-2-(3-pyridyl)-thiazolidin-4-one] | 5 (≈ 24 µM) | –
42 | CC(C)COCCOCC[C@H]1S[C@H](c2cccnc2)N(CCN(C)C)C1=O (relative stereo) [compound 150] | 0.16 (≈ 0.404 µM) | –
43 | CN1C(=O)C(C)(C)SC1c1cccnc1 (centres unmarked) [compound 8, 5,5,3-trimethyl-2-(3-pyridyl)-thiazolidin-4-one] | 3.6 (≈ 16.2 µM) | –
44 | CN(C)CCN1C(=O)[C@@H](CCOCc2ccccc2)S[C@@H]1c1cccnc1 (relative stereo) [compound 131] | 0.14 (≈ 0.363 µM) | –
45 | CCCCCCCCC[C@H]1S[C@@H](c2cccnc2)N(C)C1=O (relative stereo) [compound 50] | 4.6 (≈ 14.4 µM) | –
46 | CCCCCCCCCC[C@H]1S[C@H](c2cccnc2)N(CCN(C)C)C1=O (relative stereo) [compound 79] | 0.05 (≈ 0.128 µM) | –
47 | CCCCCCCCC[C@H]1S[C@@H](c2cccnc2)N(CCN(C)C)C1=O (relative stereo) [compound 28, 3-(2-Dimethylaminoethyl)-5-(n-nonyl)-2-(3-pyridyl)thiazolidin-4-one] | 0.2 (≈ 0.53 µM) | Percentage inhibition of PAF-induced blood concentration (maximum increase in hematocrit value) ([2]; dose 30 mg/kg iv): 92%; IC50 ([3]; PAF concentration 0.3 μM): 1.2 µg/mL (≈ 3.18 µM); IC50 ([3]; PAF concentration 1 μM): 2.5 µg/mL (≈ 6.62 µM)
48 | CCCCOCC[C@H]1S[C@H](c2cccnc2)N(CCN(C)C)C1=O (relative stereo) [compound 133] | 0.18 (≈ 0.512 µM) | –
49 | CCCCCCCCCCC[C@H]1S[C@H](c2cccnc2)N(CCN(C)C)C1=O (relative stereo) [compound 81] | 0.1 (≈ 0.247 µM) | –
50 | C#CCN1C(=O)[C@@H](C)S[C@@H]1c1cccnc1 (relative stereo) [compound 33] | – | IC50 ([3]; PAF concentration 0.3 μM): 5.5 µg/mL (≈ 23.7 µM)

— US4992455A, “Thiazolidin-4-one derivatives useful for treating diseases caused by platelet activating factor” (Sumitomo Pharmaceuticals Company, Limited, priority 1987, dated 1991)
